Values joined by “and” are separate entries in the source; they are usually repeats but may differ in a detail not shown here. Equal entries are not always repeated. Where two headings read alike, the source gives them in different places.
Test system: genotype Ib HCV replicon
Experiment: HCV replicon luciferase assay, monotherapy and triple combination studies
Assay type: cell-based
Details: monotherapy, 3 days, Expt 1-3
Excerpt: The HCV replicons used in these studies were generated at Bristol-Myers Squibb using the procedure described in WO2004014852. […] The functional replicon was then assembled in plasmid pGem9zf(+) (Promega, Madison, Wis.) using standard molecular biology techniques. To create a replicon encoding a luciferase reporter, the gene encoding humanized Renilla Luciferase protein was introduced upstream of the neomycin phosphotransferase gene.
HCV replicon cell lines were isolated from colonies as described by Lohman, et. al (Lohmann, V., F. Korner, J.-O. Koch, U. Herian, L. Theilmann, and R. Bartenschlager 1999, Science 285:110-113) and used for all experiments. Briefly, replicon clones were linearized with ScaI and RNA transcripts synthesized in vitro using the T7 MegaScript transcription kit (Ambion, Austin, Tex.) according to manufacturer's directions. […] After 24 h, selective media containing 0.5 mg/mL Geneticin (G418, Gibco-BRL, Rockville, Md.) was added and media was changed every 3 to 5 days. After approximately 4 weeks, cells were expanded for further analysis. Cells were maintained at 37° C. in DMEM (Gibco-BRL, Rockville, Md.) with 10% heat inactivated calf serum (Sigma), penicillin/streptomycin, and 0.5 mg/ml G418.
To determine compound efficacy, HCV replicon cells were plated at a density of 10^4 per well in 96-well plates in DMEM media containing 10% FBS. Following incubation overnight, compounds serially diluted in DMSO, or DMSO alone, were added to individual wells to a final DMSO concentration of 0.5%. Cell plates were then incubated at 37° C. for 3 days prior to assaying for cytotoxicity and HCV inhibition.
Plates were then washed two times with PBS and renilla luciferase activity assayed using a Dual-Glo Luciferase Assay System (Promega Corporation, Madison, Wis.) according to the manufacturer's directions. Plates were read on a TopCount NXT Microplate Scintillation and Luminescence Counter (Packard Instrument Company). The 50% effective concentration (EC50) was calculated by using Excel Fit (Version 2.0, Build 30).
Stock solutions, 200 times the desired final assay concentration, were prepared by 3-fold dilution in DMSO prior to addition to cells/media.

Row | SMILES | EC50 (Hepatitis C virus, 72 h, read-out: NS3 PI EC50) [nM] | EC50 (read-out: NS3 PI EC50) | EC50 (Hepatitis C virus, 72 h, read-out: NS5A Inhibitor EC50) [nM] | EC50 (read-out: NS5A Inhibitor EC50) [nM]
1 | C=C[C@@H]1C[C@]1(NC(=O)[C@@H]1C[C@@H](Oc2ncc(OC)c3ccc(Cl)cc23)CN1C(=O)[C@@H](NC(=O)OC(C)(C)C)C(C)(C)C)C(=O)NS(=O)(=O)C1CC1 [NS3 PI] | 0.825 | 1.2 nM and 0.705 nM | – | –
2 | COC(=O)N[C@H](C(=O)N1CCCC1c1ncc(-c2ccc(-c3ccc(-c4cnc(C5CCCN5C(=O)[C@@H](NC(=O)OC)C(C)C)[nH]4)cc3)cc2)[nH]1)C(C)C (stereo partly shown) [NS5A Inhibitor] | – | – | 0.002 | 0.003
